From publication PMC11739741 (Clinical Pharmacology and Therapeutics, 2024)
Entries after “also recorded” stand apart in the source; their conditions may differ. Like-named read-outs stand apart in the source and are kept apart here.

Experiments:
[1] = cited from earlier work
[2] = SSZ/GLPG3970 DDI study: plasma pharmacokinetics; format: in vivo, human; settings: for AUC(0-t) / AUC(0-inf) / Cmax: human, plasma, oral, geometric LS mean (95% CI); for AUC(0-t): AUC0–t; for AUC(0-inf): AUC0–∞; for Cmax: C max
[3] = test system: breast cancer resistance protein (BCRP); settings: at clinically relevant concentrations; ref unpublished data; cited from earlier work
[4] = cited from earlier work; remark: listed apart in the source
[5] = MTX/GLPG3970 DDI study: plasma pharmacokinetics; format: in vivo, human; settings: for Intra‐participant variability of AUC0–∞ and C max: MTX/GLPG3970 DDI study; for AUC(0-inf): AUC0–∞
[6] = Day 5 (GLPG3970 + SSZ) vs. day 1 (SSZ alone)
[7] = Day 9 (GLPG3970 2 h after SSZ) vs. day 1 (SSZ alone)
[8] = 1000 mg, SSZ 1,000 mg alone, Day 1 (n = 8)
[9] = GLPG3970 350 mg 2 h after SSZ 1,000 mg, Day 9 (n = 7)
[10] = GLPG3970 350 mg + SSZ 1,000 mg, Day 5 (n = 7)
[11] = Day 5 (GLPG3970 + MTX) vs. day 1 (MTX alone)
[12] = GLPG3970 350 mg + MTX 7.5 mg, Day 5 (n = 14)
[13] = MTX 7.5 mg alone, Day 1 (n = 15)

Compound: Nc1ccc(S(=O)(=O)Nc2ccccn2)cc1 [SPD, sulfapyridine]
- mean plasma t 1/2 ([1]; fast acetylation phenotype (NAT2)): 10.4 h
- mean plasma t 1/2 ([1]; slow acetylation phenotype (NAT2)): 14.8 h
- AUC0–t, geometric LS mean ratio (90% CI) [2, 6]: 90 (81, 100) %
- AUC0–∞, geometric LS mean ratio (90% CI) [2, 6]: 90 (81, 101) %
- C max, geometric LS mean ratio (90% CI) [2, 6]: 90 (78, 102) %
- AUC0–t, geometric LS mean ratio (90% CI) [2, 7]: 89 (80, 99) %
- AUC0–∞, geometric LS mean ratio (90% CI) [2, 7]: 89 (80, 100) %
- C max, geometric LS mean ratio (90% CI) [2, 7]: 94 (82, 107) %
- Effect of GLPG3970 on SPD exposure ([2]; SSZ with GLPG3970 (simultaneously or 2 h before) vs. SSZ alone): similar; also recorded: no relevant effect
- AUC(0-t) [2, 8]: 119 µg·h/mL
- AUC(0-inf) [2, 8]: 125 µg·h/mL
- Cmax [2, 8]: 5680 ng/mL
- AUC(0-t) [2, 9]: 106 µg·h/mL
- AUC(0-t) [2, 10]: 107 µg·h/mL
- AUC(0-inf) [2, 9]: 112 µg·h/mL
- AUC(0-inf) [2, 10]: 113 µg·h/mL
- Cmax [2, 9]: 5310 ng/mL
- Cmax [2, 10]: 5090 ng/mL

Compound: COc1cc(-c2cnc3cc(OCCN4CCOCC4)ccn23)cc2c1C(=O)N(CC(F)(F)F)CC2 [GLPG3970]
- Inhibition of BCRP in vitro [3]: strongly inhibits; also recorded: strong inhibition
- Dose proportionality of exposure (AUC) ([4]; across the evaluated dose range): increased more than the dose proportionally
- Effect of food consumption on C max ([4]; preliminary work, ref not given): reduced
- Tolerability ([4]; single and multiple ascending doses, healthy volunteers): well tolerated

Compound: CN(Cc1nc2c(N)nc(N)nc2[nH]c1=O)c1ccc(C(=O)N[C@@H](CCC(=O)O)C(=O)O)cc1 [7‐OH‐MTX, 7‐hydroxy‐methotrexate]
- AUC0–t, geometric LS mean ratio (90% CI) [5, 11]: 80 (69, 92) %
- C max, geometric LS mean ratio (90% CI) [5, 11]: 77 (72, 82) %
- AUC0–t, geometric LS mean (95% CI) [5, 12]: 392 (332, 463) ng.h/mL
- C max, geometric LS mean (95% CI) [5, 12]: 27.0 (23.9, 30.4) ng/mL
- AUC0–t, geometric LS mean (95% CI) [5, 13]: 490 (418, 576) ng.h/mL
- C max, geometric LS mean (95% CI) [5, 13]: 35.0 (31.1, 39.4) ng/mL
- Reduction in AUC0–t ([5]; MTX + GLPG3970 vs. MTX alone): 20%
- Reduction in C max ([5]; MTX + GLPG3970 vs. MTX alone): 23%
- Reduction in exposure ([5]; MTX + GLPG3970 vs. MTX alone): 20–23%
- Intra‐participant variability of AUC0–∞ and C max [5]: 10–22%

Compound: CN(Cc1cnc2nc(N)nc(N)c2n1)c1ccc(C(=O)N[C@@H](CCC(=O)O)C(=O)O)cc1 [MTX, methotrexate, reference compound]
- fraction of dose metabolized in the liver [1]: Approximately 10%
- mean t 1/2 [1]: 3 to 10 h
- bioavailability ([1]; oral dosing): ~ 60%
- excreted unchanged in urine ([1]; within 24 hours): 80–90%
- AUC0–t, geometric LS mean (95% CI) [5, 12]: 583 (523, 649) ng.h/mL
- Time after which plasma concentrations fell below the LLOQ ([5]; MTX 7.5 mg, LLOQ 5 ng/mL): 12 h
- Intra‐participant variability of AUC0–∞ and C max [5]: 10–22%
- AUC(0-t) ([5]; human, plasma, oral, 7.5 mg, AUC0–t, geometric LS mean (95% CI), MTX 7.5 mg alone, Day 1 (n = 15)): 0.627 µg·h/mL
- AUC(0-inf) ([5]; human, plasma, oral, 7.5 mg, geometric LS mean (95% CI), MTX 7.5 mg alone, Day 1 (n = 13)): 0.677 µg·h/mL
- AUC(0-inf) ([5]; human, plasma, oral, geometric LS mean (95% CI), GLPG3970 350 mg + MTX 7.5 mg, Day 5 (n = 12)): 0.614 µg·h/mL
- Cmax ([5]; human, plasma, oral, C max, geometric LS mean (95% CI), GLPG3970 350 mg + MTX 7.5 mg, Day 5 (n = 14)): 193 ng/mL

Compound: O=C(O)c1cc(/N=N/c2ccc(S(=O)(=O)Nc3ccccn3)cc2)ccc1O [SSZ, sulfasalazine, reference compound]
- Time at which systemic concentrations are detectable post‐dosing ([1]; oral, literature, ref not given): ~ 1.5 hours
- t max ([1]; post‐dosing, oral SSZ, literature, ref not given): 3 to 12 h
- AUC(0-t) [2, 8]: 59.3 µg·h/mL
- AUC(0-inf) [2, 8]: 59.8 µg·h/mL
- Cmax [2, 8]: 7270 ng/mL
- AUC(0-t) [2, 9]: 109 µg·h/mL
- AUC(0-t) [2, 10]: 108 µg·h/mL
- AUC(0-inf) [2, 9]: 110 µg·h/mL
- AUC(0-inf) [2, 10]: 109 µg·h/mL
- Cmax [2, 9]: 13100 ng/mL
- Cmax [2, 10]: 12000 ng/mL
